{"source": "paper PMC12314051", "about": "“Design, antiproliferative potency, and in silico studies of novel 5-methylfuran-3-yl)thio)-3-phenylquinazolin-4(3H)-one based derivatives as potential EGFR inhibitors” (Scientific Reports, 2025)", "key": {"[1]": {"molecular_target": "T1, EGFR (Homo sapiens, UniProt P00533)", "T1 construct": "purchased Abcam", "T1 sequence (P00533 25-1210)": "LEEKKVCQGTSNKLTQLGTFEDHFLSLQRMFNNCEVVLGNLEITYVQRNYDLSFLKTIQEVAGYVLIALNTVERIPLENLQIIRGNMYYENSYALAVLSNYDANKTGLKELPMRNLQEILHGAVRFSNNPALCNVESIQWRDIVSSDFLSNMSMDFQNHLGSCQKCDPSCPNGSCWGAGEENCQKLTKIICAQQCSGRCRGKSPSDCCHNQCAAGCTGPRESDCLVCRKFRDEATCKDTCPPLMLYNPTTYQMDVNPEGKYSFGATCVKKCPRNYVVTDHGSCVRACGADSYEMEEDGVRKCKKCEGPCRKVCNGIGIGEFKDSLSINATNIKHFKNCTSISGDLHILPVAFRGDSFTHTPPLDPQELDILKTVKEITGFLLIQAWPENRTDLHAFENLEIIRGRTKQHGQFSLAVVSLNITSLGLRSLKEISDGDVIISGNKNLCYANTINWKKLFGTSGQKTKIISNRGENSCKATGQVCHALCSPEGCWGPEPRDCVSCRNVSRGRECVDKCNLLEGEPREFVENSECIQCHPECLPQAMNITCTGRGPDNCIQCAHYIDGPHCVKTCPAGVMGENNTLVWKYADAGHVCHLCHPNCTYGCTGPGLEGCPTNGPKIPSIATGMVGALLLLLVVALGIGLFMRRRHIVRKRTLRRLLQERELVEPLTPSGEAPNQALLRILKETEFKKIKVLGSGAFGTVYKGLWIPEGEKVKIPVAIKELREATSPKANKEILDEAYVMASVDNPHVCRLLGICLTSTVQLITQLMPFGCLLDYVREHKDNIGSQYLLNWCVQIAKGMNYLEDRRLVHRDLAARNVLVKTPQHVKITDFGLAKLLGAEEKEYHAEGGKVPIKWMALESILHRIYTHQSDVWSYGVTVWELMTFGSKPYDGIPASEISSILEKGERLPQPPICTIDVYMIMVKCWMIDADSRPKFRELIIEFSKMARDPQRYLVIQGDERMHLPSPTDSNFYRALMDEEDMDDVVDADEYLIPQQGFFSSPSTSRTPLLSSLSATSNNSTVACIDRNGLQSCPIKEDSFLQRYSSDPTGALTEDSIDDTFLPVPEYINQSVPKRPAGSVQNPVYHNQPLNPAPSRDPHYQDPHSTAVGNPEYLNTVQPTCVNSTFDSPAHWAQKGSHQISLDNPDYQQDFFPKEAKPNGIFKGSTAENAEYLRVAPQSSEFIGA", "assay": "In vitro EGFR inhibition assay", "assay_type": "biochemical"}, "[2]": {"system": "WI-38 cells", "assay": "MTT cytotoxicity assay, normal WI-38", "assay_type": "cell-based", "conditions": "Homo sapiens; normal WI-38, MTT assay; read-out: IC50 (mean ± SD)", "protocol": ". […]. Furthermore, the MTT assay was employed to examine the safety profiles of the cytotoxic activity against the normal human diploid cell line WI-38 (Table 1). […]. They could therefore be considered safe chemotherapeutic agents.\n(§1) Following the published protocol[75]–[77], the cytotoxic effects of the newly synthesized quinazolinones 1–10 were assessed in vitro using the MTT test method on human liver HepG-2, breast MCF-7, colorectal HCT-116 cancer cell lines, and normal diploid cell line WI-38. There were further details in the supplemetary file.\n(§2) The cell lines were obtained from Karolinska Center, Department of Oncology and Pathology, Karolinska Institute and Hospital, Stockholm, Sweden, as follows: human liver HepG-2, breast MCF-7, and colorectal HCT-116 cancer cell lines and human diploid cell line WI-38. Exponentially, cells were placed in 10^4 cells/ well for 24 h, and then fresh medium containing different concentrations of the tested sample. two-fold serial dilution of the tested sample was added using a multichannel pipette. Moreover, all cells were cultivated at 37 °C, 5% CO2 and 95% humidity. Also, incubation of control cells occurred at 37 °C. However, after incubation for 24 h different concentrations of the sample (100, 50, 25, 12.5, 6.25, 3.125, and 1.56 µM) were added, and continued the incubation for 48 h, then, add the crystal violet solution of 1% to each well for 0.5 h to examine viable cells. Rinse the wells using water until no stain. After that, add 30% glacial acetic acid to all wells with shaking plates on a Microplate reader (TECAN, Inc.) to measure the absorbance, using a test wavelength of 490 nm. Besides, compare the treated samples with the control cell. The cytotoxicity was estimated by IC50 in (μM), the concentration that inhibits 50% of growth of cancer cell."}, "[3]": {"system": "HepG-2, HCT-116 and MCF-7 cell lines", "assay": "MTT cytotoxicity, all screened cancer cell lines together (SAR summary)", "assay_type": "cell-based, human", "conditions": "HepG-2, HCT-116 and MCF-7 cell lines", "protocol": "[…]. In addition, replacement of acetyl group in 2 with pyrazoline moiety with free N-1 in 7 or bound to thiazole in 9, yielded weak activity.\nas §1, §2"}, "[4]": {"system": "HepG-2 cells", "assay": "MTT cytotoxicity assay, HepG-2", "assay_type": "cell-based", "conditions": "Homo sapiens, HepG2; HepG-2, MTT assay; read-out: IC50 (mean ± SD)", "protocol": "as §1, §2"}, "[5]": {"system": "Bax", "assay": "Bax level in MCF-7 cells", "assay_type": "cell-based, human", "conditions": "MCF-7, 3.91 μM, 24 h", "excerpt": "(§3) The extrinsic pathway, which is controlled by the death receptor, and the intrinsic pathway, which is handled by the mitochondria, are the two primary mechanisms that govern the cell during apoptosis. The two proteins Bcl-2 and Bax can alter this planned process due to their respective roles as […] (inducer), and the balance between them adjusts cell death. A further vital component that either causes cell death or prevents cell proliferation is the tumor suppressor gene, p53. […] Furthermore, compound 6b increased the amount of p53 protein in MCF-7 treated cells by 7.2 times, while control cells only had 119.65 Pg/mL (Table 3).\n(§4) For the promising quinazolinone-furan-benzo[b][1,4]diazepine 6b, the Bax, Bcl-2, and p53 levels in MCF-7 cells were elucidated using the previously disclosed method.\nThe magnitudes of the apoptotic proteins; BAX and Bcl-2 were evaluated using BIORAD iScript TM One-Step RT-PCR kit with SYBR®Green (BIO-RAD Laboratories, Hercules, CA, US). The method of the applied kit was conducted according to the manufacturer’s protocol and previously reported method. First, mRNA isolation is done using RNeasy extraction kit, up to 1 × 10^7 cells, depending on the cell line. Then Cells were exposed to RNeasy Lysis Buffer (RLT buffer) and homogenized, while ethanol was then supplemented to the mixture to allow selective binding of RNA to the RNeasy membrane. Afterwards, the sample was loaded to the RNeasy mini spin column where total RNA was bound to the membrane while contaminants competently passed through, and high-quality RNA was eluted in RNase-free water. Then, the reaction mixture was incubated in a real-time thermal detection system (Rotorgene) as follows: cDNA synthesis: 10 min at 50 ◦C, iScript reverse transcriptase inactivation: 5 min at 95 ◦C, polymerase chain reaction (PCR) cycling and detection (30–45 cycles): 10s at 95 ^◦C and 30 s at 55 ^◦C to 60 ^◦C (data collection step) and melt curve analysis: 1 min at 95 ◦C and 1 min at 55 ^◦C and 10s at 55 ^◦C (80 cycles, increasing each by 0.5 ^◦C each cycle)."}, "[6]": {"system": "MCF-7 cells", "assay": "Cell cycle analysis by flow cytometry (PI)", "assay_type": "cell-based, human", "conditions": "MCF-7, 3.91 μM, 24 h", "protocol": "(§5) The treated cells were subsequently analyzed using flow cytometry and annexin-V labeling (Fig. 4, 5, 6).\n(§6) Using flow cytometry, the investigation of cell cycle analysis and apoptosis was described[79],[81]. After applying quinazolinone-furan-benzo[b][1,4]diazepine 6b to MCF-7 cells for 24 h, the cells were incubated at 37 °C. The supplemental file contained more information.\n(§7) Cell cycle analysis and apoptosis study were carried out using ab139418–Propidium Iodide Flow Cytometry Kit for Cell Cycle Analysis. MCF-7 cells were seeded at 8×10^4 and incubated at 37°C in 5% CO2 overnight. After treatment with the tested compound 10 for 24 h, cell pellets were collected and centrifuged (300 g, 5 min). For cell cycle analysis, cell pellets were fixed with 70% ethanol on ice for 15 min and collected again. The pellets were incubated with propidium iodide (PI) staining solution at room temperature for 1 h and analyzed by a Gallios flow cytometer (Beckman Coulter, Brea, CA, USA). Apoptosis detection was carried out by FITC AnnexinV/PI commercial kit (Becton Dickenson, Franklin Lakes, NJ, USA) following the manufacturer protocol. The samples were analyzed by fluorescence-activated cell sorting (FACS) with a Gallios flow cytometer (Beckman Coulter, Brea, CA, USA) within 1 h after staining. Data were analyzed using Kaluza v 1.2 (Beckman Coulter)."}, "[7]": {"molecular_target": "T2, VEGFR-2 (Homo sapiens, UniProt P35968)", "T2 construct": "purchased Ray Biotech", "T2 sequence (P35968 20-1356)": "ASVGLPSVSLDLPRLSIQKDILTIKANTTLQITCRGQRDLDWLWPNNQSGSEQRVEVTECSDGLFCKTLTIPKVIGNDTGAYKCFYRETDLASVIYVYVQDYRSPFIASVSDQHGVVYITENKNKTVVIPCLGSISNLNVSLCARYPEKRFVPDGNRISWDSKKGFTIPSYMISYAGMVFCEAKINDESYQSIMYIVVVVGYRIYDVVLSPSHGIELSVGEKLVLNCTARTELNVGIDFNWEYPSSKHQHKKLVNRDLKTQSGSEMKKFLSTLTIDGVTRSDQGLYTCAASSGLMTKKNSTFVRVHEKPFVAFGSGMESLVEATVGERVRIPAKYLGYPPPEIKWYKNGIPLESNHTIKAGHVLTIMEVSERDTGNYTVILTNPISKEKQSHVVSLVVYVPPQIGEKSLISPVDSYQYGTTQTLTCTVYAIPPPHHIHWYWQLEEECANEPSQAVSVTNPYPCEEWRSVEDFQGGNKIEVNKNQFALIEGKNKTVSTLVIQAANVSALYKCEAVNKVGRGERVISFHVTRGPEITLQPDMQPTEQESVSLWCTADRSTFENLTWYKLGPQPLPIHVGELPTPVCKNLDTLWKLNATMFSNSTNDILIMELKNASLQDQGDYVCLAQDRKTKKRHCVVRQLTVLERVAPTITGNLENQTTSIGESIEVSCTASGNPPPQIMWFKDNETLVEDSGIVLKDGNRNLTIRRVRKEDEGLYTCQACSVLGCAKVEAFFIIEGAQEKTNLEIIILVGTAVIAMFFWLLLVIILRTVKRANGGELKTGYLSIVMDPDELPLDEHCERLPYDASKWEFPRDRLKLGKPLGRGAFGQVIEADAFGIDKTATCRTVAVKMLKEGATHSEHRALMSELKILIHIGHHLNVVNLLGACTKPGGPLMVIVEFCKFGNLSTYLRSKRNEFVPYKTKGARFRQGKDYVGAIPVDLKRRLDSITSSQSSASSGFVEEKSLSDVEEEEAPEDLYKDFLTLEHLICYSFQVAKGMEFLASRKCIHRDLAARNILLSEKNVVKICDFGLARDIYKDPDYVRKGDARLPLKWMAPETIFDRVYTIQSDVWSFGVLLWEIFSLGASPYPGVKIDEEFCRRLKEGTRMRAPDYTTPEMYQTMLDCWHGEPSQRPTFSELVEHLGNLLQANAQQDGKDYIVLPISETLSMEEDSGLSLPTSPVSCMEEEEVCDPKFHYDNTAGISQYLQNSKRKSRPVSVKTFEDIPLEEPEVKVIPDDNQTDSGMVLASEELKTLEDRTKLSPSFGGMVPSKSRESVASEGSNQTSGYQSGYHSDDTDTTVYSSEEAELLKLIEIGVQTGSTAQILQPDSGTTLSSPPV", "assay": "In vitro VEGFR-2 inhibition assay (ELISA kit)", "assay_type": "biochemical", "conditions": "read-out: IC50 (mean ± SD)", "protocol": "Quinazolinone-based targets 1, 6b, 8a, and 10 were chosen for further evaluation of their in vitro inhibitory activity against EGFR and VEGFR-2 because of their exceptional cytotoxic outcomes, with the goal of clarifying their mode of action. […]. VEGFR-2 assay: the effect of the most promising cytotoxic compounds 1, 6b, 8a, and 10 was evaluated for their in vitro inhibitory activity against Human VEGFR-2 using ELISA kit according to manufacturer's instructions (Ray Biotech). This assay employs an antibody specific for human VEGFR-2 coated on a 96-well plate. Samples and standards were added to the wells and incubated over night at 4 °C with gentle shaking. The wells were washed and biotinylated antibody was added followed by incubation for one hour at room temperature. After washing away unbound biotinylated antibody, HRP conjugated streptavidin was pipetted to the wells and\nincubated at room temperature for 45 min. The wells were then washed; TMB substrate solution was added and incubated for 30 min. The color developed was in proportion to the amount of VEGFR-2 bound. The Stop Solution was added and the intensity of the color was measured at 450 nm. Percent inhibition was calculated by the comparison of compounds treated to control incubations. […]"}, "[8]": {"system": "MCF-7 cells", "assay": "MTT cytotoxicity assay, MCF-7", "assay_type": "cell-based", "conditions": "Homo sapiens, MCF7; MCF-7, MTT assay; read-out: IC50 (mean ± SD)", "protocol": "as §1, §2"}, "[9]": {"system": "p53", "assay": "p53 level in MCF-7 cells (ELISA)", "assay_type": "cell-based, human", "conditions": "MCF-7, 3.91 μM, 24 h", "excerpt": "as §3, §4\nHuman p53 present in MCF-7 cells was determined; using Human p53 ELISA-Kit (CS0070 Sigma) read using spectrophotometer at 450 nm against untreated control cells (negative control) applying the standard protocols of the manufacturers. The samples or standard having human p53 bind to antibodies adsorbed to the microwells. Addition of biotin-conjugated was followed by incubation and addition of dispense of unbound biotin-conjugated streptavidin HRP. Then, the reaction was terminated by adding acid, and the absorbance was measured at 450 nm."}, "[10]": {"system": "MCF-7 cells", "assay": "Apoptosis detection, annexin V-FITC/PI flow cytometry", "assay_type": "cell-based, human", "protocol": "as §5, §6, §7"}, "[11]": {"system": "Bcl-2", "assay": "Bcl-2 level in MCF-7 cells", "assay_type": "cell-based, human", "conditions": "MCF-7, 3.91 μM, 24 h", "excerpt": "as §3, §4\nThe magnitudes of the apoptotic proteins; BAX and Bcl-2 were evaluated using BIORAD iScript TM One-Step RT-PCR kit with SYBR®Green (BIO-RAD Laboratories, Hercules, CA, US). The method of the applied kit was conducted according to the manufacturer’s protocol and previously reported method. First, mRNA isolation is done using RNeasy extraction kit, up to 1 × 10^7 cells, depending on the cell line. Then Cells were exposed to RNeasy Lysis Buffer (RLT buffer) and homogenized, while ethanol was then supplemented to the mixture to allow selective binding of RNA to the RNeasy membrane. […]"}, "[12]": {"system": "HCT-116 cells", "assay": "MTT cytotoxicity assay, HCT-116", "assay_type": "cell-based", "conditions": "Homo sapiens; HCT-116, MTT assay; read-out: IC50 (mean ± SD)", "protocol": "as §1, §2"}}, "note": "Several values for one entry are separate records, joined by “and”; a condition that tells them apart may be missing. Equal values may be shown once.", "data": [{"smiles": "Cc1occ(Sc2nc3ccccc3c(=O)n2-c2ccccc2)c1C1CC(c2ccco2)Nc2ccccc2N1", "note": "(centres unmarked) [Compound 6b, 2-((4-(4-(Furan-2-yl)-2,3,4,5-tetrahydro-1H-benzo[b][1,4]diazepin-2-yl)-5-methylfuran-3-yl)thio)-3-phenylquinazolin-4(3H)-one]", "values": [{"measurement": "selectivity EGFR over VEGFR-2", "setting": "[1]; EGFR versus VEGFR-2", "value": "substantially more selective for EGFR than VEGFR-2"}, {"measurement": "IC50", "setting": "[1]; EGFR, read-out: IC50 (mean ± SD)", "value": "0.19 ± 0.03", "unit": "µM"}, {"measurement": "IC50", "setting": "[2]", "value": "41.3 ± 2.5", "unit": "µM"}, {"measurement": "cytotoxic activity in words (SAR study)", "setting": "[3]", "value": "Excellent activity"}, {"measurement": "IC50", "setting": "[4]", "value": "5.8 ± 0.4", "unit": "µM"}, {"measurement": "Bax", "setting": "[5]", "value": "241.60 pg/mL and 241.6 ± 1.33 pg/mL"}, {"measurement": "Bax/Bcl-2", "setting": "[5]", "value": 85.67}, {"measurement": "rise in Bax levels versus untreated control", "setting": "[5]", "value": 6.3, "unit": "fold"}, {"measurement": "%G0-G1", "setting": "[6]", "value": 46.68, "unit": "%"}, {"measurement": "%G2/M", "setting": "[6]", "value": 35.29, "unit": "%"}, {"measurement": "%S", "setting": "[6]", "value": 18.03, "unit": "%"}, {"measurement": "IC50", "setting": "[7]", "value": "31.6 ± 1.48", "unit": "µM"}, {"measurement": "IC50", "setting": "[8]", "value": "3.91 ± 0.2", "unit": "µM"}, {"measurement": "P53", "setting": "[9]", "value": "860.55 ± 2.47", "unit": "pg/mL"}, {"measurement": "increase of p53 protein versus control", "setting": "[9]", "value": 7.2, "unit": "times"}, {"measurement": "Apoptosis Early", "setting": "[10]; MCF-7, 3.91 μM, 24 h", "value": 8.92, "unit": "%"}, {"measurement": "Apoptosis Late", "setting": "[10]; MCF-7, 3.91 μM, 24 h", "value": 15.39, "unit": "%"}, {"measurement": "Apoptosis Total", "setting": "[10]; MCF-7, 3.91 μM, 24 h", "value": 29.76}, {"measurement": "Necrosis", "setting": "[10]; MCF-7, 3.91 μM, 24 h", "value": 5.45, "unit": "%"}, {"measurement": "apoptosis in MCF-7 cells as stated in abstract and conclusion", "setting": "[10]; MCF-7, flow cytometry", "value": 35.29, "unit": "%"}, {"measurement": "Bcl-2", "setting": "[11]", "value": "2.82 ng/mL and 2.82 ± 0.11 ng/mL"}, {"measurement": "Bcl-2 protein downregulated versus control", "setting": "[11]", "value": 2.6, "unit": "times"}, {"measurement": "IC50", "setting": "[12]", "value": "7.97 ± 0.5", "unit": "µM"}]}]}
